Experimental data published in article PMC4721062, “Oxadiazole-2-oxides may have other functional targets, in addition to SjTGR, through which they cause mortality in Schistosoma japonicum” (Parasites & Vectors, 2016).
Entries after “also recorded” stand apart in the source; their conditions may differ. Where two headings read alike, the source gives them in different places.

Assays:
[1] = molecular target: T1, recombinant SjTGR (Schistosoma japonicum, UniProt B5THG7); assay: Inhibition of TrxR activity of recombinant SjTGR (DTNB assay); type: biochemical; settings: 50 nM SjTGR, 1 mM NADPH, 15 min preincubation, DTNB reduction
T1 sequence (B5THG7 1-596): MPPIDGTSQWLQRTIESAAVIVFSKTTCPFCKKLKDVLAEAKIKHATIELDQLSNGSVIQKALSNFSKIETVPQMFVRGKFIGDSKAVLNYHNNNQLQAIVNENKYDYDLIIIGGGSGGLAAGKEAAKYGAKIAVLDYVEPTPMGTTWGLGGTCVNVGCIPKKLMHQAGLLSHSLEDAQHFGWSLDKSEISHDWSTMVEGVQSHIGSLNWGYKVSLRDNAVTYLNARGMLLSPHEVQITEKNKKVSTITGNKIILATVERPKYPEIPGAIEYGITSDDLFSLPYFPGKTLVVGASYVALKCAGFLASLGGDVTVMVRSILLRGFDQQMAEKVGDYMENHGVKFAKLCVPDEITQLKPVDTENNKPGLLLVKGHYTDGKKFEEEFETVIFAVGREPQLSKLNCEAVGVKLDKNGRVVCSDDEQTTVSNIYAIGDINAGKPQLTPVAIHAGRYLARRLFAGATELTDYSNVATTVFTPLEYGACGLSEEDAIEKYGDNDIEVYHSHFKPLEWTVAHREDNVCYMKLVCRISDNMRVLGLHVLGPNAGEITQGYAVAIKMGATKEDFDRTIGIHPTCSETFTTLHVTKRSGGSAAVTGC
How it was run: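 SjTGR (50 nM) preincubated 15 min at room temperature with 1 mM NADPH and oxadiazole-2-oxides (2-20 μM). Reaction started with potassium phosphate pH 7.4, 10 mM EDTA, 100 μM NADPH, 3 mM DTNB; A412 increase followed over first 2 min, triplicates.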

[2] = Cytotoxicity assay on Hela cells (MTT); type: cell-based; settings: human
Protocol: Cytotoxicity assays were performed using Hela cells. Cells in the exponential growth phase were collected by centrifugation and a concentration of 4–5 × 10^4/mL was created. 100 μL of the cell suspension was added to each well of a 96-well plate and cultured overnight at 37 °C in a humid atmosphere with 5 % CO2. Oxadiazole-2-oxides (at 10, 20, 40, 80 and 160 μM) were added. Each concentration was assayed in triplicate, and control wells (no cells and no drugs) were assayed at the same time. The “no cell” control wells only contained RPMI 1640 medium, MTT, DMSO, and oxadiazole-2-oxides. The “no drug” control wells contained the Hela cells, RPMI 1640 medium, MTT and DMSO. The cells were cultured for 48 h at 37 °C in a humid atmosphere with 5 % CO2. Then, 20 μL of 5 mg/mL MTT was added to each well and the culture conditions were maintained for 4 h. After this point, the medium was removed and 150 μL DMSO was added into each well to dissolve any crystallisation. The value of absorbance at 570 nm of each well was measured (at 570 nm) with a microplate reader to assess the toxic effect of the oxadiazole-2-oxides on the vertebrate cells.

[3] = system: juvenile S. japonicum in mice; assay: Treatment of infected mice at juvenile worm stage; type: in vivo, Schistosoma japonicum (ICR mice); settings: 10 mg/kg i.p. daily for 5 days from day 7 post-infection; for Number of eggs per gram of liver (Mean ± SD) / Number of worms (Mean ± SD): sacrificed day 42; for Egg reduction rate / Worm reduction rate: versus control, 10 mg/kg
Protocol: (§1) The abdominal skin of each mouse (ICR, female, 22–24 g) was exposed to 20 S. japonica cercariae (as described above). The mice were intraperitoneally injected with 10 mg/kg oxadiazole-2-oxides daily for 5 days, beginning either 7 or 35 days post-infection. Control mice were treated with 10 mg/kg of the carrier medium. All mice were sacrificed 42 days post-infection. The worm burden of each mouse was confirmed by counting the number of worms observed from a portal vein perfusion. The mouse livers were digested overnight with 5 % potassium hydroxyl solution at 37 °C and the eggs in the liver tissue were counted under an inverted phase contrast microscope. The worm and egg reduction rates were calculated using the following formulas: Wormreductionrate%=meannumberofadultwormspermouseincontrolgroup−meannumberofadultwormspermouseinexperimentalgroup/meannumberofadultwormspermouseincontrolgroup. Eggreductionrate%=meannumberofeggspermouseincontrolgroup−meannumberofeggspermouseinexperimentalgroup/meannumberofeggspermouseincontrolgroup.

[4] = system: adult S. japonicum in mice; assay: Treatment of infected mice at adult worm stage; type: in vivo, Schistosoma japonicum (ICR mice); settings: for Reduction in the female worms: mice treated at adult worm stage (data not shown); for Number of eggs per gram of liver (Mean ± SD) / Number of worms (Mean ± SD) / Egg reduction rate / Worm reduction rate: mice, 10 mg/kg i.p. daily for 5 days from day 35 post-infection; for Number of eggs per gram of liver (Mean ± SD) / Number of worms (Mean ± SD): sacrificed day 42; for Egg reduction rate / Worm reduction rate: versus control
Protocol: as §1

[5] = system: S. mansoni; settings: compared with 10 μM, 72 h data; cited from earlier work
[6] = system: adult S. japonica; assay: Activity against adult S. japonica in vitro with and without NO scavenger carboxy-PTIO; type: cell-based, Schistosoma japonicum; design: dose or concentration left out as unconfirmed; settings: adult worms in vitro
Protocol: To assess the importance of NO production, the potassium salt of carboxy-PTIO, a NO scavenger, was dissolved in water and 100 mM was incubated with freshly perfused adult S. japonica in the presence or absence of […] oxadiazole-2-oxides. The worms’ mobility, tegumental alterations and parasite survival were monitored using an inverted microscope. The experiment was done in triplicate.
Fig. 4 Activity of oxadiazole-2-oxides against adult S. japonica in vitro, with and without carboxy-PTIO. Carboxy-PTIO was incubated with freshly perfused adult S. japonica at 100 mM in the presence and absence of […] oxadiazole-2-oxides. The worms’ mobility, tegumental alterations and survival rates were monitored under an inverted microscope. The experiment was done in triplicate. The percentage of adult worms that survived are shown (mean ± SD; n = 3)

COc1ccc(-c2no[n+]([O-])c2CO)cc1 [Compound 4a]
IC50 ([1]; read-out: IC50 of SjTGR): 2.7 µM | viability at 72 h, 80 µM [2]: 91% | Number of eggs per gram of liver (Mean ± SD) [3]: 4,258.9 ± 1,910.0 (P > 0.05^**) | Number of worms (Mean ± SD) [3]: 1.3 ± 0.8 (P > 0.05^**) | Egg reduction rate [3]: 47.0 (P < 0.05^*) % | Worm reduction rate [3]: 87.7 (P < 0.01^*) % | Reduction in the female worms [4]: 36.8% | Number of eggs per gram of liver (Mean ± SD) [4]: 7730.8 ± 1457.8 (P < 0.05^**) | Number of worms (Mean ± SD) [4]: 4.0 ± 2.5 (P > 0.05^**) | Egg reduction rate ([4]; 10 mg/kg): 3.8 (P > 0.05^*) % | Worm reduction rate ([4]; 10 mg/kg): 66.7 (P < 0.01^*) %

Cc1ccc(-c2no[n+]([O-])c2CO)cc1 [Compound 4b]
IC50 ([1]; read-out: IC50 of SjTGR): 1.7 µM | viability at 72 h, 80 µM [2]: 96% | Number of eggs per gram of liver (Mean ± SD) [3]: 8,669.2 ± 2,255.8 (P < 0.05^**) | Number of worms (Mean ± SD) [3]: 1.8 ± 1.5 (P > 0.05^**) | Worm reduction rate [3]: 83.1 (P < 0.01^*) % | Number of eggs per gram of liver (Mean ± SD) [4]: 7007.8 ± 2420.2 (P < 0.05^**) | Number of worms (Mean ± SD) [4]: 9.0 ± 3.8 (P < 0.05^**) | Egg reduction rate [4]: 12.8 (P > 0.05^*) % | Worm reduction rate [4]: 25.0 (P > 0.05^*) %

COc1ccc(-c2no[n+]([O-])c2C#N)cc1 [Compound 7a]
IC50 ([1]; IC50 of SjTGR): 12.2 µM | Mortality in adult worms of S. mansoni [5]: 100.0%

Cc1ccc(-c2no[n+]([O-])c2C#N)cc1 [Compound 7b]
IC50 ([1]; IC50 of SjTGR): 14.2 µM | Mortality in adult worms of S. mansoni [5]: 70.0%

N#Cc1c(-c2ccc(Br)cc2)no[n+]1[O-] [Compound 7c]
IC50 ([1]; IC50 of SjTGR): 3.7 µM | viability at 72 h, 80 µM [2]: 66% | Number of eggs per gram of liver (Mean ± SD) [3]: 3,859.4 ± 3,749.4 (P > 0.05^**) | Number of worms (Mean ± SD) [3]: 1.4 ± 0.8 (P > 0.05^**) | Egg reduction rate [3]: 52.0 ( P > 0.05^*) % | Worm reduction rate [3]: 87.1 (P < 0.01^*) % | Number of eggs per gram of liver (Mean ± SD) [4]: 7213.0 ± 2658.0 (P < 0.05^**) | Number of worms (Mean ± SD) [4]: 12.0 ± 3.9 (P < 0.05^**) | Egg reduction rate [4]: 10.2 (P > 0.05^*) % | Killing activity with versus without carboxy-PTIO [6]: no differences in the killing activities | Mortality in adult worms of S. mansoni [5]: 100.0%

N#Cc1c(-c2ccc(O)cc2)no[n+]1[O-] [Compound 8]
IC50 ([1]; IC50 of SjTGR): 37.4 µM | Mortality in adult worms of S. mansoni [5]: 100.0%

N#Cc1c(-c2ccc(OCCBr)cc2)no[n+]1[O-] [Compound 12]
IC50 ([1]; read-out: IC50 of SjTGR): 21.7 µM

N#Cc1c(-c2ccc(OCCCBr)cc2)no[n+]1[O-] [Compound 13]
IC50 ([1]; read-out: IC50 of SjTGR): 1.6 µM | viability at 72 h, 80 µM [2]: 80% | Number of eggs per gram of liver (Mean ± SD) [3]: 3,808.9 ± 1,288.9 (P > 0.05^**) | Number of worms (Mean ± SD) [3]: 1.7 ± 0.7 (P > 0.05^**) | Egg reduction rate [3]: 52.6 (P < 0.05^*) % | Worm reduction rate [3]: 84.6 (P < 0.01^*) % | Number of eggs per gram of liver (Mean ± SD) [4]: 8201.4 ± 2066.0 (P < 0.05^**) | Number of worms (Mean ± SD) [4]: 8.6 ± 2.4 (P < 0.05^**) | Worm reduction rate [4]: 28.3 (P < 0.05^*) %

N#Cc1c(-c2ccc(OC/C=C/CBr)cc2)no[n+]1[O-] [Compound 16]
IC50 ([1]; read-out: IC50 of SjTGR): 0.5 µM | viability at 72 h, 80 µM [2]: 89% | Number of eggs per gram of liver (Mean ± SD) [3]: 4,054.5 ± 1,322.1 (P > 0.05^**) | Number of worms (Mean ± SD) [3]: 1.0 ± 0.5 (P > 0.05^**) | Egg reduction rate [3]: 49.5 (P < 0.01^*) % | Worm reduction rate [3]: 90.8 (P < 0.01^*) % | Reduction in the female worms [4]: 44.7% | Number of eggs per gram of liver (Mean ± SD) [4]: 6424.1 ± 1193.4 (P < 0.05^**) | Number of worms (Mean ± SD) [4]: 3.7 ± 1.4 (P > 0.05^**) | Egg reduction rate ([4]; 10 mg/kg): 20.0 (P > 0.05^*) % | Worm reduction rate ([4]; 10 mg/kg): 69.4 (P < 0.01^*) % | Killing activity with versus without carboxy-PTIO [6]: no differences in the killing activities

N#Cc1c(-c2ccc(OCc3ccccc3)cc2)no[n+]1[O-] [Compound 19]
IC50 of SjTGR [1]: did not inhibit; also recorded: neither did they inhibit the SjTGR activity | IC50 ([1]; read-out: IC50 of SjTGR): > 20 µM

C#CCOc1ccc(-c2no[n+]([O-])c2C#N)cc1 [Compound 20]
IC50 ([1]; read-out: IC50 of SjTGR): 3.3 µM | viability at 72 h, 80 µM [2]: 87% | Number of eggs per gram of liver (Mean ± SD) [3]: 7,767.5 ± 2,676.6 (P < 0.05^**) | Number of worms (Mean ± SD) [3]: 3.0 ± 0.9 (P < 0.05^**) | Egg reduction rate [3]: 3.3 (P > 0.05^*) % | Worm reduction rate [3]: 69.5 (P < 0.01^*) % | Number of eggs per gram of liver (Mean ± SD) [4]: 10094.7 ± 1691.0 (P < 0.05^**) | Number of worms (Mean ± SD) [4]: 4.7 ± 1.1 (P > 0.05^**) | Worm reduction rate [4]: 61.1 (P < 0.01^*) %

N#Cc1c(-c2ccc(COc3ccccc3)cc2)no[n+]1[O-] [Compound 23]
IC50 of SjTGR [1]: did not inhibit | IC50 ([1]; read-out: IC50 of SjTGR): > 20 µM

N#Cc1c(-c2ccc(COc3ccc(C=O)cc3)cc2)no[n+]1[O-] [Compound 26]
IC50 of SjTGR [1]: did not inhibit; also recorded: neither did they inhibit the SjTGR activity | IC50 ([1]; read-out: IC50 of SjTGR): > 20 µM

Cc1ccc2cccc(OCc3ccc(-c4no[n+]([O-])c4C#N)cc3)c2n1 [Compound 28]
IC50 of SjTGR [1]: did not inhibit | IC50 ([1]; read-out: IC50 of SjTGR): > 20 µM
